In patent publication US8080657B2, “Compounds of reverse turn mimetics and the use thereof” (Choongwae Pharma Corporation, priority 2008, dated 2011):
Like-named read-outs stand apart in the source and are kept apart here.

Legend:
[1] = target: T1, cDNA-expressed human hepatic CYP3A4 (Homo sapiens, UniProt P08684); assay: P450 CYP3A4 inhibitory activity screening (BFC substrate, fluorescence); assay type: biochemical
T1 construct: purchased BD Gentest 456202

MV-4-11 cells = assay: Cell growth inhibition assay on AML cancer cells (CellTiter 96); assay type: cell-based; settings: Homo sapiens, MV4-11
Procedure: The lower GI50 value means the higher inhibition activity.
Cell Growth Inhibition Activity on AML Cancer Cells (Cell Growth Inhibition Assay)
Cell growth Inhibition assay was performed to investigate the rate of inhibition of cell proliferation by the test compounds. MV-4-11 (human, Acute Myeloid Leukemia cell line) cells were cultured in Iscove's modified Dulbecco's medium (IMDM) including 10% fetal bovine serum (FBS), 1× penicillin/streptomycin (10,000 units/ml Penicillin, […] Streptomycin in 0.85% NaCl). MV-4-11 cells were harvested with IMDM medium and 5×10^4 cells/well were transferred to each well of 96 well culture plates (Nunc, #167008). The test compounds were treated with the serial dilution and duplicated for each concentration. For the serial dilution, the test compounds were repeatedly diluted with the same volume of media onto 96-well assay block (costar, #3956). After the dilution, each compound was added to each well. The background absorbance was also measured during the test compounds treatment by adding the IMDM media in replacement of test compound to the negative control plate. The plates were incubated for 3 days (72 hours) at 37° C. in the humidified incubator containing 5% CO2. On the last day, 20 μL of CellTiter 96 Aqueous One Solution (Promega #G3581) was added to the culture in each well and the plates were incubated for a few hours at 37° C. in the humidified incubator containing 5% CO2. After the incubation, the absorbance of each cell was measured at 490 nm using an EnVision (Perkinelmer, USA). The GI50 values were calculated using a Prism 3.0 program.

Wnt signaling = assay: TopFlash reporter gene bioassay in SW480 cells; assay type: cell-based; settings: Homo sapiens, SW480, TopFlash reporter gene assay, inhibition of Wnt signaling; read-out: RGA, IC50 (μM) TopF
[2] = cell growth inhibition on AML cancer cells, MV-4-11, read-out: MV-4-11, GI50

T1 sequence (P08684 whole entry): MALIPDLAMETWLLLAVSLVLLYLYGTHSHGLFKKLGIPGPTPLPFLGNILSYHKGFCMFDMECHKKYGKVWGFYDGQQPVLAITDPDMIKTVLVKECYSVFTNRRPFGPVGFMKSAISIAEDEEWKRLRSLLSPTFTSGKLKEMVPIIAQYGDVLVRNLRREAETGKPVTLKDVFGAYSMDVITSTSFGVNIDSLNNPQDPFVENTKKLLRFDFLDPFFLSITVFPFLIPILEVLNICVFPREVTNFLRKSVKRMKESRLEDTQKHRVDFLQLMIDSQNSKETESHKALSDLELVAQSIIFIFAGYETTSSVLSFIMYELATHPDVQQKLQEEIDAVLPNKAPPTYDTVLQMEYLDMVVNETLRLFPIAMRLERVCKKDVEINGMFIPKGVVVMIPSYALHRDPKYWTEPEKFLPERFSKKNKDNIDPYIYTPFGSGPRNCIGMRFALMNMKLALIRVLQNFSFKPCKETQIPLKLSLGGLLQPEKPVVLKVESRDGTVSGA

Compound | GI50 (MV-4-11 cells; [2]) | other results
C=CCN1CC(=O)N2[C@@H](Cc3ccc(O)cc3)C(=O)N(Cc3cccc(C(=O)NCCOC)c3)C[C@@H]2N1C(=O)NCc1ccccc1 [Compound B] | – | IC50 ([1]; human CYP3A4 supersome, substrate BFC, 10 min incubation at 37° C., read-out: IC50 values of Compounds against CYP3A4 activity): 34.6 µM; GI50 (MV-4-11 cells; MV-4-11 cells, 72 hours, read-out: GI50, cell growth inhibition of MV-4-11 AML cancer cells): 188 nM
C=CCN1CC(=O)N2[C@@H](Cc3ccc(O)cc3)C(=O)N(Cc3cccc(NC(=O)OC)c3)C[C@@H]2N1C(=O)NCc1ccccc1 [compound 5] | 50 nM | IC50 (Wnt signaling): 0.16 ± 0.08 µM
C=CCN1CC(=O)N2[C@@H](Cc3ccc(O)cc3)C(=O)N(Cc3cccc(Cl)c3N(C)C)C[C@@H]2N1C(=O)NCc1ccccc1 [compound 34] | 1250 nM | –
C=CCN1CC(=O)N2[C@@H](Cc3ccc(O)cc3)C(=O)N(Cc3cccc(-c4ncc[nH]4)c3)C[C@@H]2N1C(=O)NCc1ccccc1 [compound 35] | 1120 nM | –
C=CCN1CC(=O)N2[C@@H](Cc3ccc(O)cc3)C(=O)N(Cc3cccc(C(=O)NCCC)c3)C[C@@H]2N1C(=O)NCc1ccccc1 [compound 37] | 240 nM | –

The next lines start with results.

GI50 (MV-4-11 cells; [2]) | Compound | other results
180 nM | C=CCN1CC(=O)N2[C@@H](Cc3ccc(O)cc3)C(=O)N(Cc3cccc(C(=O)NCCOC)c3)C[C@@H]2N1C(=O)NCc1ccccc1 [compound 38] | IC50 ([1]; P450 CYP3A4 inhibitory activity screening, fluorescent assay, read-out: CYP3A4 inhibition, IC50 (μM) fluorescent assay): 34.6 µM
960 nM | C=CCN1CC(=O)N2[C@@H](Cc3ccc(O)cc3)C(=O)N(Cc3cccc(C(=O)NCC4CCCCC4)c3)C[C@@H]2N1C(=O)NCc1ccccc1 [compound 39] | –
270 nM | C=CCN1CC(=O)N2[C@@H](Cc3ccc(O)cc3)C(=O)N(Cc3cccc(C(=O)NCC4CC4)c3)C[C@@H]2N1C(=O)NCc1ccccc1 [compound 40] | –
1560 nM | C=CCN1CC(=O)N2[C@@H](Cc3ccc(O)cc3)C(=O)N(Cc3cccc(C(=O)Nc4cc[nH]n4)c3)C[C@@H]2N1C(=O)NCc1ccccc1 [compound 41] | –
640 nM | C=CCN1CC(=O)N2[C@@H](Cc3ccc(O)cc3)C(=O)N(Cc3cccc(C(=O)OCC)n3)C[C@@H]2N1C(=O)NCc1ccccc1 [compound 42] | –
310 nM | C=CCN1CC(=O)N2[C@@H](Cc3ccc(O)cc3)C(=O)N(Cc3cccc(C(N)=O)n3)C[C@@H]2N1C(=O)NCc1ccccc1 [compound 43] | –
550 nM | C=CCN1CC(=O)N2[C@@H](Cc3ccc(O)cc3)C(=O)N(Cc3cccc(C(=O)NC)n3)C[C@@H]2N1C(=O)NCc1ccccc1 [compound 44] | –
2790 nM | C=CCN1CC(=O)N2[C@@H](Cc3ccc(O)cc3)C(=O)N(Cc3cccc(C(=O)N(C)C)n3)C[C@@H]2N1C(=O)NCc1ccccc1 [compound 45] | –
